Laboratory results from patent US6610715B1, “Cathecol hydrazone derivatives, process for preparing the same and pharmaceutical composition containing the same” (Cheil Jedang Corporation, priority 2001, dated 2003).

Test system: Phosphodiesterase IV partially purified from human U937 cells
Experiment: Inhibition of Phosphodiesterase IV Activity ([3H]cAMP hydrolysis, scintillation counting)
Assay type: biochemical
Settings: 1.0 uM cAMP, 30° C., 20 minutes
Description: Compounds prepared by Examples 1 through 16 and Rolipram as control were tested on the inhibition of phosphodiesterase IV.
Phosphodiesterase IV partially purified from human U937 cells, test compound and 1.0 uM cAMP including 0.01 uM[^3H]cAMP were incubated at 30° C. for 20 minutes. The PDE reaction to convert cAMP into AMP was […] by boiling the reaction solution for 2 minutes. AMP was converted into adenosine by adding snake venom nucleotidase and incubating the reaction solution at 30° C. for 10 minutes. While unhydrolyzed cAMPs were bonded to AG1-X2 resin, the [^3H]adenosine in the aqueous solution was quantified by scintillation counting. The results are shown in Table I below, in which the values indicate inhibition (%) of the PDE IV by each test compound.

[1] = test compound concentration 2 uM
[2] = test compound concentration 20 uM

SMILES | Inhibition (%) of the PDE IV [1] | Inhibition (%) of the PDE IV [2]
COc1ccc(/C=N/NC(=O)c2ccncc2)cc1OC1CCCC1 [EXAMPLE 1, (E)-3-cyclopentyloxy-4-methoxybenzaldehyde isonicotinic hydrazone] | 38.4% | 66.7%
CCOC(=O)N/N=C/c1ccc(OC)c(OC2CCCC2)c1 [EXAMPLE 2, (E)-ethyl[(3-cyclopentyloxy-4-methoxyphenyl)methylene]hydrazinoformate] | 46.7% | 63.7%
COc1ccc(/C=N/Nc2ccccc2)cc1OC1CCCC1 [EXAMPLE 3, (E)-3-cyclopentyloxy-4-methoxybenzaldehyde phenylhydrazone] | 46.6% | 80.4%
COc1ccc(/C=N/NC(C)=O)cc1OC1CCCC1 [EXAMPLE 4, (E)-3-cyclopentyloxy-4-methoxybenzaldehyde acetic hydrazone] | 51.7% | 72.1%
COc1ccc(/C=N/NC2=NCCN2)cc1OC1CCCC1 [EXAMPLE 6, (E)-3-cyclopentyloxy-4-methoxybenzaldehyde 2-imidazolinohydrazone] | 31.7% | 58.3%
COc1ccc(/C=N/NC(N)=O)cc1OC1CCCC1 [EXAMPLE 7, (E)-2-[(3-cyclopentyloxy-4-methoxyphenyl)methylene]hydrazinecarboxamide] | 66.2% | 89.7%
COc1ccc(/C=N/NC(N)=S)cc1OC1CCCC1 [EXAMPLE 9, (E)-2-[(3-cyclopentyloxy-4-methoxyphenyl)methylene]hydrazinecarbothioamide] | 69.0% | 81.0%
COc1ccc(/C=N/Nc2ccc(Cl)cc2)cc1OC1CCCC1 [EXAMPLE 10, (E)-3-cyclopentyloxy-4-methoxybenzaldehyde 4chlorophenylhydrazone] | 39.3% | 70.7%
COc1ccc(/C=N/NC(=O)C[N+](C)(C)C)cc1OC1CCCC1 [EXAMPLE 11, (E)-2[(3-cyclopentyloxy-4-methoxyphenyl)methylene]hydrazinecarbonylmethyl(trimethyl)ammonium chloride] | 43.3% | 45.1%
COc1ccc(/C=N/N2CCCCC2)cc1OC1CCCC1 [EXAMPLE 13, (E)-N-piperidino-3-cyclopentyloxy-4-methoxyphenylmethaneimine] | 31.4% | 73.3%
COc1ccc(/C=N/NC(=N)N)cc1OC1CCCC1 [EXAMPLE 14, (E)-2-[(3-cyclopentyloxy-4-methoxyphenyl)methylene]hydrazinecarboximidamide] | 14.7% | 57.7%
COc1ccc(/C=N/Nc2ccccn2)cc1OC1CCCC1 [EXAMPLE 15, (E)-3-cyclopentyloxy-4-methoxybenzaldehyde 2-pyridinylhydrazone] | 49.4% | 63.6%
COc1ccc(/C=N/Nc2ccccc2C(=O)O)cc1OC1CCCC1 [EXAMPLE 16, (E)-3-cyclopentyloxy-4-methoxybenzaldehyde 2-carboxyphenylhydrazone] | 42.3% | 76.6%
COc1ccc(C2CNC(=O)C2)cc1OC1CCCC1 (stereo not shown) [Rolipram, reference compound] | 62.5% | 70.1%
